{"source": "patent US7767854B2", "about": "“N-substituted phenylacetamide derivative and pharmaceutical composition containing the same” (Dainippon Sumitomo Pharma Co., Ltd., priority 2005, dated 2010)", "data": [{"system": "male Std: Wistar rats", "assay": "Pain test by plantar thermal stimuli (plantar test)", "assay_type": "in vivo", "conditions": "Rattus norvegicus, 4 h, 50 μl of 0.03% (W/V) solution i.pl. into right hind-paw; 4 hours after administration; cut-off 25 seconds; read-out: % MPE (percent maximum possible effect, withdrawal latency)", "description": "(§1) Experiment 1: Pain Test by Plantar Thermal Stimuli (Plantar Test)\n(§2) In the present experiment, the analgesic effect of the compounds of the invention was evaluated by the measurements of withdrawal latency to noxious thermal stimuli, according to the methods of Hargreaves, et al., [Pain, 32, 77-88 (1988)] and Field, et al., [J. Pharmacol. Exp. Ther., 282, 1242-1246 (1997)].\n(§3) In detail, the experiment was carried out using male Std: Wistar rats (4 rats/group; body weight, 170-220 g) and a plantar test device (Model 7370, Ugo Basile) with infrared beam as a heat source. The rat was put into an experimental cage that is an acrylic box whose bottom is made of glass and was habituated therein. Then, the infrared beam was radiated to the plantar surface of right hind-paw thereof through the floor glass, and the withdrawal latency was measured every 5 minutes, 3 times. The intension of the infrared beam was adjusted so that the pre-drug administration latency was about 10 seconds. The cut-off time was set at 25 seconds in order to prevent a paw burn. The average of the latencies was calculated, and then it was defined as the value of the pre-drug administration latency of the test compound.\n(§4) Next day, 50 μl of each solution of the test compounds [the compounds of the invention, the compounds of the comparative Examples and capsaicin (Sigma, U.S.A.)] or 50 μl of vehicle solvent (reference) was given to a right hind-paw of the rat by intraplantar injection (i. pl.) using a micro-syringe. The test compound was dissolved in a saline solution containing 10% Tween 80 (Sigma, U.S.A) and 10% ethanol to give a 0.03% (W/V) solution. The saline solution containing 10% Tween 80 and 10% ethanol was used as reference. Four hours after i.pl. administration of each the test compound or the reference to the rats, the experiment mentioned above was carried out, and then the post-drug administration latency was measured. The analgesic effects thereof were calculated with the following formula, which was known as a percent maximum possible effect (% MPE). % MPE=[(the value of post-drug latency−the value of pre-drug latency)/(25*−the value of pre-drug latency)]×100 *: cut-off time", "units": {"change in vivo at 300 µg/mL": "%"}, "values": [{"smiles": "CCCC(CCC)[C@H]1CC[C@H](NC(=O)Cc2ccc(O)c(OC)c2)CC1", "note": "[Example 85]", "change in vivo at 300 µg/mL": 49.3}, {"smiles": "COc1cc(CC(=O)N[C@H]2CC[C@H](CC3CC3)CC2)ccc1O", "note": "[Example 100, N-(trans-4-cyclopropylmethylcyclohexyl)-2-(4-hydroxy-3-methoxyphenyl)acetamide]", "change in vivo at 300 µg/mL": 44.5}, {"smiles": "COc1cc(CC(=O)N[C@H]2CC[C@@H](/C=C/C(C)C)CC2)ccc1O", "note": "[Example 63]", "change in vivo at 300 µg/mL": 96.4}, {"smiles": "COc1cc(CC(=O)N[C@H]2CC[C@@H](/C=C/C3CCC3)CC2)ccc1O", "note": "[Example 66]", "change in vivo at 300 µg/mL": 88}, {"smiles": "C=C/C=C/[C@H]1CC[C@H](NC(=O)Cc2ccc(O)c(OC)c2)CC1", "note": "[Example 19]", "change in vivo at 300 µg/mL": 35.9}, {"smiles": "COc1cc(CC(=O)N[C@H]2CC[C@H](CCCCF)CC2)ccc1O", "note": "[Example 99, N-[trans-4-(4-fluorobutyl)cyclohexyl]-2-(4-hydroxy-3-methoxyphenyl)acetamide]", "change in vivo at 300 µg/mL": 55.8}, {"smiles": "CCCCO[C@H]1CC[C@H](NC(=O)Cc2ccc(O)c(OC)c2)CC1", "note": "[Example 35, N-(trans-4-butoxycyclohexyl)-2-(4-hydroxy-3-methoxyphenyl)acetamide]", "change in vivo at 300 µg/mL": 42.8}, {"smiles": "COc1cc(CC(=O)NC2CCCCC2)ccc1O", "note": "[Comparative Example 2, N-cyclohexyl-2-(4-hydroxy-3-methoxyphenyl)-acetamide, reference compound]", "change in vivo at 300 µg/mL": 30.6}, {"smiles": "C/C=C/CC[C@H]1CC[C@H](NC(=O)Cc2ccc(O)c(OC)c2)CC1", "note": "[Example 75, 2-(4-hydroxy-3-methoxyphenyl)-N-{trans-4-[(E)-3-pentenyl]cyclohexyl}acetamide]", "change in vivo at 300 µg/mL": 74.4}, {"smiles": "CCCC(CCC)C1=CCC(NC(=O)Cc2ccc(O)c(OC)c2)CC1", "note": "(centres unmarked) [Example 89, N-[4-(4-heptyl)-3-cyclohexenyl]-2-(4-hydroxy-3-methoxyphenyl)acetamide]", "change in vivo at 300 µg/mL": 100}, {"smiles": "CCCCC1(CC)CCC(NC(=O)Cc2ccc(O)c(OC)c2)CC1", "note": "(centres unmarked) [Example 107]", "change in vivo at 300 µg/mL": 85.2}, {"smiles": "CCCC[C@H]1CC[C@H](NC(=O)Cc2ccc(O)c(OC)c2)CC1", "note": "[Example 28]", "change in vivo at 300 µg/mL": 87.1}, {"smiles": "COc1cc(CC(=O)N[C@H]2CC[C@H](CCC3CCC3)CC2)ccc1O", "note": "[Example 59, N-[trans-4-(2-cyclobutylethyl)cyclohexyl]-2-(4-hydroxy-3-methoxyphenyl)acetamide]", "change in vivo at 300 µg/mL": 74.7}, {"smiles": "CCC(CC)[C@H]1CC[C@@H](NC(=O)Cc2ccc(O)c(OC)c2)CC1", "note": "[Example 98, 2-(4-hydroxy-3-methoxyphenyl)-N-[cis-4-(3-pentyl)cyclohexyl]acetamide]", "change in vivo at 300 µg/mL": 74.6}, {"smiles": "CCCC1(CCC)CCC(NC(=O)Cc2ccc(O)c(OC)c2)CC1", "note": "[Example 9, N-(4,4-dipropylcyclohexyl)-2-(4-hydroxy-3-methoxyphenyl)acetamide]", "change in vivo at 300 µg/mL": 64.7}, {"smiles": "COc1cc(CC(=O)NC2CCC(=C3CCCC3)CC2)ccc1O", "note": "(centres unmarked) [Example 80]", "change in vivo at 300 µg/mL": 37}, {"smiles": "CC/C=C/[C@H]1CC[C@@H](NC(=O)Cc2ccc(O)c(OC)c2)CC1", "note": "[Example 62]", "change in vivo at 300 µg/mL": 86.3}, {"smiles": "COc1cc(CC(=O)N[C@H]2CC[C@H](CC3CCCC3)CC2)ccc1O", "note": "[Example 34]", "change in vivo at 300 µg/mL": 97.8}, {"smiles": "COc1cc(CC(=O)N[C@H]2CC[C@H](CC(C)C)CC2)ccc1O", "note": "[Example 33]", "change in vivo at 300 µg/mL": 73.3}, {"smiles": "COc1cc(CC(=O)NC2CCC(C)CC2)ccc1O", "note": "(centres unmarked) [Comparative Example 1, 2-(4-hydroxy-3-methoxyphenyl)-N-(4-methyl-cyclohexyl)acetamide, reference compound]", "change in vivo at 300 µg/mL": 23.3}, {"smiles": "CCC(CC)[C@H]1CC[C@H](NC(=O)Cc2ccc(O)c(OC)c2)CC1", "note": "[Example 84]", "change in vivo at 300 µg/mL": 76.9}, {"smiles": "COc1cc(CC(=O)N[C@H]2CC[C@@H](CC=C(C)C)CC2)ccc1O", "note": "[Example 47, 2-(4-hydroxy-3-methoxyphenyl)-N-[cis-4-(3-methyl-2-butenyl)cyclohexyl]acetamide]", "change in vivo at 300 µg/mL": 69}, {"smiles": "CCC[C@H]1CC[C@H](NC(=O)Cc2ccc(O)c(OC)c2)CC1", "note": "[Example 31]", "change in vivo at 300 µg/mL": 54.3}, {"smiles": "COc1cc(CC(=O)N[C@H]2CC[C@@H](CCCC3CC3)CC2)ccc1O", "note": "[Example 71]", "change in vivo at 300 µg/mL": 87.9}, {"smiles": "COc1cc(CC(=O)N[C@H]2CC[C@H](/C=C/C(C)=O)CC2)ccc1O", "note": "[Example 21]", "change in vivo at 300 µg/mL": 50.3}, {"smiles": "CCC(C)(C)C1CCC(NC(=O)Cc2ccc(O)c(OC)c2)CC1", "note": "(centres unmarked) [Example 4]", "change in vivo at 300 µg/mL": 56.6}, {"smiles": "COc1cc(CC(=O)NC2CCC(=C3CCCCC3)CC2)ccc1O", "note": "(centres unmarked) [Example 76, N-(4-cyclohexylidenecyclohexyl)-2-(4-hydroxy-3-methoxyphenyl)acetamide]", "change in vivo at 300 µg/mL": 71}, {"smiles": "CCC1(CC)CCC(NC(=O)Cc2ccc(O)c(OC)c2)CC1", "note": "[Example 106]", "change in vivo at 300 µg/mL": 51.5}, {"smiles": "COc1cc(CC(=O)N[C@H]2CC[C@H](C=C3CCCC3)CC2)ccc1O", "note": "[Example 25]", "change in vivo at 300 µg/mL": 98.3}, {"smiles": "COc1cc(CC(=O)NC2CCC(=C3CCC3)CC2)ccc1O", "note": "(centres unmarked) [Example 79]", "change in vivo at 300 µg/mL": 33.6}, {"smiles": "COc1cc(CC(=O)NC2CCC(=C3CCCCCC3)CC2)ccc1O", "note": "(centres unmarked) [Example 81]", "change in vivo at 300 µg/mL": 94.4}, {"smiles": "CCCC[C@H]1CC[C@@H](NC(=O)Cc2ccc(O)c(OC)c2)CC1", "note": "[Example 7]", "change in vivo at 300 µg/mL": 78.6}, {"smiles": "C/C=C\\[C@H]1CC[C@@H](NC(=O)Cc2ccc(O)c(OC)c2)CC1", "note": "[Example 50]", "change in vivo at 300 µg/mL": 48.2}, {"smiles": "COc1cc(CC(=O)N[C@H]2CC[C@@H](C=C(C)C)CC2)ccc1O", "note": "[Example 95, 2-(4-hydroxy-3-methoxyphenyl)-N-[cis-4-(2-methyl-1-propenyl)cyclohexyl]acetamide]", "change in vivo at 300 µg/mL": 88.8}, {"smiles": "C/C=C/[C@H]1CC[C@@H](NC(=O)Cc2ccc(O)c(OC)c2)CC1", "note": "[Example 61]", "change in vivo at 300 µg/mL": 49.4}, {"smiles": "CCCC(CCC)=C1CCC(NC(=O)Cc2ccc(O)c(OC)c2)CC1", "note": "(centres unmarked) [Example 78]", "change in vivo at 300 µg/mL": 82.8}, {"smiles": "COc1cc(CC(=O)N[C@H]2CC[C@H](C=C3CCC3)CC2)ccc1O", "note": "[Example 91, N-[trans-4-(cyclobutylidenemethyl)-cyclohexyl]-2-(4-hydroxy-3-methoxyphenyl)acetamide]", "change in vivo at 300 µg/mL": 74.2}, {"smiles": "CCCCOC[C@H]1CC[C@H](NC(=O)Cc2ccc(O)c(OC)c2)CC1", "note": "[Example 39]", "change in vivo at 300 µg/mL": 39.6}, {"smiles": "C=C(C)/C=C/[C@H]1CC[C@H](NC(=O)Cc2ccc(O)c(OC)c2)CC1", "note": "[Example 72, 2-(4-hydroxy-3-methoxyphenyl)-N-{trans-4-[(E)-3-methyl-1,3-butadienyl]cyclohexyl}acetamide]", "change in vivo at 300 µg/mL": 75.4}, {"smiles": "COc1cc(CC(=O)N[C@H]2CC[C@H](/C=C/C3CC3)CC2)ccc1O", "note": "[Example 55]", "change in vivo at 300 µg/mL": 55.4}, {"smiles": "C/C=C/[C@H]1CC[C@H](NC(=O)Cc2ccc(O)c(OC)c2)CC1", "note": "[Example 53]", "change in vivo at 300 µg/mL": 47.1}, {"smiles": "CCC[C@H]1CC[C@@H](NC(=O)Cc2ccc(O)c(OC)c2)CC1", "note": "[Example 68, 2-(4-hydroxy-3-methoxyphenyl)-N-(cis-4-propylcyclohexyl)acetamide]", "change in vivo at 300 µg/mL": 81.6}, {"smiles": "COc1cc(CC(=O)N[C@H]2CC[C@H](/C=C\\CC(F)(F)F)CC2)ccc1O", "note": "[Example 23]", "change in vivo at 300 µg/mL": 77.9}]}, {"system": "male Std: Wistar rats", "assay": "Pain test by plantar thermal stimuli (plantar test)", "assay_type": "in vivo", "conditions": "Rattus norvegicus; 50 μl of 0.03% (W/V) solution i.pl. into right hind-paw; 4 hours after administration; cut-off 25 seconds; read-out: % MPE (percent maximum possible effect, withdrawal latency)", "description": "as §1, §2, §3, §4", "units": {"change in vivo at 300 µg/mL": "%"}, "values": [{"smiles": "COc1cc(CC(=O)N[C@H]2CC[C@H](OC(=O)Cc3ccccc3)CC2)ccc1O", "note": "[Example 41, N-[trans-4-(benzylcarbonyloxy)cyclohexyl]-2-(4-hydroxy-3-methoxyphenyl)acetamide]", "change in vivo at 300 µg/mL": 45.8}]}]}
